Here are results for six molecules from US20090209617A1, “DULOXETINE SALTS” (priority 2006, published 2009).

For data set [1] the following is noted: preparation of salts with strong mineral acids, especially hydrobromic acid; 25 to 50° C.
The nature of data set [2]: HPLC assay of the impurity of the Formula (II) in the duloxetine salt obtained. The data set is classed as physicochemical. The note with it: rearrangement product of duloxetine, salt as obtained, limit of detection 0.01 percent by weight. The procedure:
The limit of detection for the compound of the Formula (II) is a feature of the high-performance liquid chromatographic method used for the assay thereof. Using the chromatographic method disclosed in the present application, said limit of detection is 0.01 percent by weight.
The analysis is carried out using ultraviolet absorption detector under the following chromatographic conditions:
Column, Chiral OD-R, 250*4,6 mm, 10 μm particle size • Flow rate, 1.0 ml/minute • Injection volume, 10 μl • Column temperature, 40° C. • Temperature of sample compartment, 20° C. • Detection wavelength, 220 nm • Mobile phase A: solution of 40 g of sodium hydroxide and 85 ml of concentrated perchloric acid are dissolved in 200 ml of distilled water, pH 2.1 • B: acetonitrile • Eluent composition, isocratic, 55 percent by volume mobile phase A • Analysis time, 30 minutes • Sample concentration, 10 mg/10 ml • Sample solvent, water-acetonitrile 80:20 volume/volume • Needle wash, water-acetonitrile […] volume/volume • Selectivity factor, >4 • Number of theoretical plates, min. 10000 • Asymmetry factor, <2
The assay is carried out according to the requirements of the pharmacopoeia regarding the determination of the impurities.
A sample containing approximately 100 mg of duloxetine is thoroughly homogenized in a mortar, weighed with analytical precision and transferred into a suitable volumetric flask. 80 ml of 80:20 volume by volume mixture of water and acetonitrile are added to the sample and the suspension is shaked in an ultrasonic bath for 10 minutes at the temperature of 25° C. The suspension is filtered and completed to 100 ml with the extraction solvent.

Data set [3] is described as follows: Stability testing of duloxetine-containing medicinal products (HPLC, mass spectrometry). To be noted: during manufacture of the salt and during shelf-life of the medicinal products prepared from it. The data set is classed as physicochemical. The procedure:
During the process of stability testing, the identity and concentration of individual impurities present in the medicinal product are determined as the function of time and storage conditions. In the aforementioned tests, generally high-performance liquid chromatography and mass spectrometry are used as analytical methods.
In order to identify the above mentioned impurities, each of them has been separated by high-performance liquid chromatography and their molecular weight was determined by mass spectrometry.
Subsequently, the compound of the Formula (II) has been prepared by the rearrangement of duloxetine hydrobromide in pure form and in good yield and the thus obtained product was subjected to structure elucidation. The identity of the thus obtained (±)-N-methyl-3-(2-thienyl)-3-(4-hydroxy-1-naphtyl)-propylamine of the Formula (II) with the impurity observed during the stability testing has been established using high-performance liquid chromatography and mass spectrometry.
The following sample preparation method has been used during the stability testing of duloxetine-containing medicinals products and assay of duloxetine active ingredients.
A sample containing approximately 100 mg of duloxetine is thoroughly homogenized in a mortar, weighed with analytical precision and transferred into a suitable volumetric flask. 80 ml of 80:20 volume by volume mixture of water and acetonitrile are added to the sample and the suspension is shaked in an ultrasonic bath for 10 minutes at the temperature of 25° C. The suspension is filtered and completed to 100 ml with the extraction solvent. A 10-μl portion of the thus obtained solution is analyzed by the high-performance liquid chromatographic method of Example 9.

Where a name gives a salt, the structure may show the parent alone.

With `CNCC[C@H](Oc1cccc2ccccc12)c1cccs1` [duloxetine, (+)-(S)—N-methyl-3-(1-naphtyloxy)-3-(2-thienyl)-propylamine], the “time in which the compound of the Formula (II) forms” value in data set [1] is recorded as “a few minutes”.
In the case of “(+)-N-methyl-3-(1-naphtyloxy)-3-(2-thienyl)-propylamine fumarate (1:1) [Example 2]”, the “amount of the impurity of the Formula (II) in the product” value (“amount of the impurity of the Formula” for short) in data set [2] is given as “less than 0.01 percent by weight”. Besides, the “formation of (±)-N-methyl-3-(2-thienyl)-3-(4-hydroxy-1-naphtyl)-propylamine of the Formula (II)” value (“formation” for short) in data set [3] is “can be detected neither during the manufacture of the above-mentioned particularly preferable salts, nor during the shelf-life”.
In the case of `CNCC[C@H](Oc1cccc2ccccc12)c1cccs1` [Example 6, (+)-N-methyl-3-(1-naphtyloxy)-3-(2-thienyl)-propylamine hydrochloride (1:1), reference compound], the “amount of the impurity of the Formula” value in data set [2] is listed as “approximately 0.05 percent by weight”.
In the case of `CNCCC(Oc1cccc2ccccc12)c1cccs1.O=C(O)C(O)c1ccccc1` (stereo not drawn) [Example 3, (+)-N-methyl-3-(1-naphtyloxy)-3-(2-thienyl)-propylamine(−)-mandelate (1:1)], the “amount of the impurity of the Formula” value in data set [2] is listed as “less than 0.01 percent by weight”. For the same molecule, the “formation” value in data set [3] is reported as “can be detected neither during the manufacture of the above-mentioned particularly preferable salts, nor during the shelf-life”.
What is called melting point is the temperature of the solid-liquid transition. Molecule `CNCCC(c1cccs1)c1ccc(O)c2ccccc12` (racemic) gave a melting point of 190 to 196 °C.
On to “(+)-N-methyl-3-(1-naphtyloxy)-3-(2-thienyl)-propylamine citrate (1:1) [Example 1]”, for which the “amount of the impurity of the Formula” value in data set [2] is “less than 0.01 percent by weight”. Further, the “formation” value in data set [3] is given as “can be detected neither during the manufacture of the above-mentioned particularly preferable salts, nor during the shelf-life”.
